We go through 21 molecules from patent US9695168B2 (Incyte Corporation, priority 2014, dated 2017).

In general, IC50 refers to the point on the concentration scale where inhibition reaches its midpoint. Lower therefore signals greater potency in that assay.

Each structure is given as a SMILES string.

In the test the target is LSD1 (Homo sapiens (Human), UniProt O60341). In words: LSD1 Histone Demethylase Biochemical Assay (LANCE LSD1/KDM1A demethylase assay). As to conditions: 1 nM LSD-1 enzyme, 1 hour preincubation at 25° C., 0.4 μM Biotin-labeled Histone H3 peptide substrate. On the procedure:
LSD1 Histone Demethylase Biochemical Assay
LANCE LSD1/KDM1A demethylase assay-10 μL of 1 nM LSD-1 enzyme (ENZO BML-SE544-0050) in the assay buffer (50 mM Tris, pH 7.5, 0.01% Tween-20, 25 mM NaCl, 5 mM DTT) were preincubated for 1 hour at 25° C. with 0.8 μL compound/DMSO dotted in black 384 well polystyrene plates. […] Reactions were stopped by addition of 10 μL 1× LANCE Detection Buffer (PerkinElmer CR97-100) supplemented with 1.5 nM Eu-anti-unmodified H3K4 Antibody (PerkinElmer TRF0404), and 225 nM LANCE Ultra Streptavidin (PerkinElmer TRF102) along with 0.9 mM Tranylcypromine-HCl (Millipore 616431). After stopping the reactions plates were incubated for 30 minutes and read on a PHERAstar FS plate reader (BMG Labtech).
Background: Time-resolved FRET reads energy transfer from a long-lived donor to a nearby acceptor.

Molecule `CCN1CCC[C@@H](COc2nc(-c3ccc(C#N)cc3)c(-c3ccc4c(c3)CC(=O)N4C)n3cncc23)C1` [Example 110, 4-[8-{[(3R)-1-ethylpiperidin-3-yl]methoxy}-5-(1-methyl-2-oxo-2,3-dihydro-1H-indol-5-yl)imidazo[1,5-a]pyrazin-6-yl]benzonitrile] registered a half-maximal inhibitory concentration (IC50) of 50 to 100 nM.
`CN(C)[C@H]1CCN(c2nc(-c3ccc(C#N)cc3)c(-c3ccc4c(c3)oc(=O)n4C)n3cncc23)C1` [Example 112, (S)-4-(8-(3-(dimethylamino)pyrrolidin-1-yl)-5-(3-methyl-2-oxo-2,3-dihydrobenzo[d]oxazol-6-yl)imidazo[1,5-a]pyrazin-6-yl)benzonitrile] registered an IC50 of 50 to 100 nM.
The same measure for `CCn1nnc2cc(-c3c(-c4ccc(C#N)cc4)cc(OC[C@@H]4CCCN(C)C4)c4cncn34)cnc21` [Example 117, 4-(5-(3-ethyl-3H-[1,2,3]triazolo[4,5-b]pyridin-6-yl)-8-{[(3R)-1-methylpiperidin-3-yl]methoxy}imidazo[1,5-a]pyridin-6-yl)benzonitrile]: 50 to 100 nM.
The same measure for `CC(O)CN1CCC[C@@H](COc2cc(-c3ccc(C#N)cc3)c(-c3cnc4c(c3)OCCO4)n3cncc23)C1` (stereo partly drawn) [Example 118, 4-(5-(2,3-dihydro[1,4]dioxino[2,3-b]pyridin-7-yl)-8-{[(3R)-1-(2-hydroxypropyl)piperidin-3-yl]methoxy}imidazo[1,5-a]pyridin-6-yl)benzonitrile]: 50 to 100 nM; for `CC(O)CN1CCC[C@@H](COc2cc(-c3ccc(C#N)cc3)c(-c3cnc4ccoc4c3)n3cncc23)C1` (stereo partly drawn) [Example 119, 4-(5-(furo[3,2-b]pyridin-6-yl)-8-(((3R)-1-(2-hydroxypropyl)piperidin-3-yl)methoxy)imidazo[1,5-a]pyridin-6-yl)benzonitrile]: 50 to 100 nM; for `CC(O)c1c(F)cc(-c2c(-c3ccc(C#N)cc3)cc(OC[C@@H]3CCCN(C)C3)c3cncn23)cc1F` (stereo partly drawn) [Example 124, 4-(5-[3,5-difluoro-4-(1-hydroxyethyl)phenyl]-8-{[(3R)-1-methylpiperidin-3-yl]methoxy}imidazo[1,5-a]pyridin-6-yl)benzonitrile]: 50 to 100 nM.
As for `CN1CCC[C@@H](COc2cc(-c3ccc(C#N)cc3)c(-c3ccc(C(C)(C)C#N)nc3)n3cncc23)C1` [Example 132, 4-(5-[6-(1-cyano-1-methylethyl)pyridin-3-yl]-8-{[(3R)-1-methylpiperidin-3-yl]methoxy}imidazo[1,5-a]pyridin-6-yl)benzonitrile], the IC50 is 50 to 100 nM.
The molecule `CCc1ccc(-c2c(-c3ccc(C#N)cc3)cc(OC[C@@H]3CCCN(C)C3)c3cncn23)cn1` [Example 133, 4-(5-(6-ethylpyridin-3-yl)-8-{[(3R)-1-methylpiperidin-3-yl]methoxy}imidazo[1,5-a]pyridin-6-yl)benzonitrile] came in with an IC50 of 50 to 100 nM.
The same measure for `CNC(=O)c1ccc(-c2c(-c3ccc(C#N)cc3)cc(OC[C@@H]3CCCN(C)C3)c3cncn23)cn1` [Example 135, 5-(6-(4-cyanophenyl)-8-{[(3R)-1-methylpiperidin-3-yl]methoxy}imidazo[1,5-a]pyridin-5-yl)-N-methylpyridine-2-carboxamide]: 50 to 100 nM.
In the case of `Cc1ncc(-c2c(-c3ccc(C#N)cc3)nc(N3CCC(N(C)C)CC3)c3cncn23)cc1C(F)F` [Example 140, 4-{5-[5-(difluoromethyl)-6-methylpyridin-3-yl]-8-[4-(dimethylamino)piperidin-1-yl]imidazo[1,5-a]pyrazin-6-yl}benzonitrile] it was 50 to 100 nM.
Consider `CNC(=O)c1ccc(-c2c(-c3ccc(C#N)cc3)nc(N3CCC(N(C)C)CC3)c3cncn23)cn1` [Example 141, 5-{6-(4-cyanophenyl)-8-[4-(dimethylamino)piperidin-1-yl]imidazo[1,5-a]pyrazin-5-yl}-N-methylpyridine-2-carboxamide], for which the half-maximal inhibitory concentration (IC50) lay in the range of 100 to 500 nM.
In the case of `CCN1CCC[C@@H](COc2cc(-c3ccc(C#N)cc3)c(-c3ccc(C)nc3)n3cncc23)C1` [Example 146, 4-[8-{[(3R)-1-ethylpiperidin-3-yl]methoxy}-5-(6-methylpyridin-3-yl)imidazo[1,5-a]pyridin-6-yl]benzonitrile] it was 50 to 100 nM.
The same measure for `COCc1cc(-c2c(-c3ccc(C#N)cc3)cc(OC[C@@H]3CCCN(C)C3)c3cncn23)cnc1C` [Example 147, 4-(5-[5-(methoxymethyl)-6-methylpyridin-3-yl]-8-{[(3R)-1-methylpiperidin-3-yl]methoxy}imidazo[1,5-a]pyridin-6-yl)benzonitrile]: 50 to 100 nM; for `COc1ncc(-c2c(-c3ccc(C#N)cc3)nc(N3CCC(N(C)C)CC3)c3cncn23)cn1` [Example 150, 4-[8-[4-(dimethylamino)piperidin-1-yl]-5-(2-methoxypyrimidin-5-yl)imidazo[1,5-a]pyrazin-6-yl]benzonitrile]: 100 to 500 nM; for `CN1CCC[C@@H](COc2cc(-c3ccc(C#N)cc3)c(-c3ccc(C(C)(C)O)nc3)n3cncc23)C1` [Example 151, 4-(5-[6-(1-hydroxy-1-methylethyl)pyridin-3-yl]-8-{[(3R)-1-methylpiperidin-3-yl]methoxy}imidazo[1,5-a]pyridin-6-yl)benzonitrile]: 100 to 500 nM.
The same measure for `CN1CCC[C@@H](COc2cc(-c3ccc(C#N)cc3)c(-c3cnc4c(c3)OCC(=O)N4C)n3cncc23)C1` [Example 152, (R)-4-(5-(4-methyl-3-oxo-3,4-dihydro-2H-pyrido[3,2-b][1,4]oxazin-7-yl)-8-((1-methylpiperidin-3-yl)methoxy)imidazo[1,5-a]pyridin-6-yl)benzonitrile]: 50 to 100 nM.
In turn, `CN1CCC[C@@H](COc2cc(-c3ccc(C#N)cc3)c(-c3ccc4c(c3)CN(C)C4=O)n3cncc23)C1` [Example 154, 4-(5-(2-methyl-1-oxo-2,3-dihydro-1H-isoindol-5-yl)-8-{[(3R)-1-methylpiperidin-3-yl]methoxy}imidazo[1,5-a]pyridin-6-yl)benzonitrile] returned a concentration for half-maximal inhibition (IC50) of 100 to 500 nM.
The same measure for `CC(C)n1nnc2cc(-c3c(-c4ccc(C#N)cc4)cc(OC[C@@H]4CCCN(C)C4)c4cncn34)cnc21` [Example 155, (R)-4-(5-(3-isopropyl-3H-[1,2,3]triazolo[4,5-b]pyridin-6-yl)-8-((1-methylpiperidin-3-yl)methoxy)imidazo[1,5-a]pyridin-6-yl)benzonitrile]: 100 to 500 nM; for `CN1CCC[C@@H](COc2cc(-c3ccc(C#N)cc3)c(-c3cnc4c(c3)nnn4C3CC3)n3cncc23)C1` [Example 156, (R)-4-(5-(3-cyclopropyl-3H-[1,2,3]triazolo[4,5-b]pyridin-6-yl)-8-((1-methylpiperidin-3-yl)methoxy)imidazo[1,5-a]pyridin-6-yl)benzonitrile]: 100 to 500 nM; for `CC(C)c1nc2cc(-c3c(-c4ccc(C#N)cc4)cc(OC[C@@H]4CCCN(C)C4)c4cncn34)cnc2n1C` [Example 157, (R)-4-(5-(2-isopropyl-3-methyl-3H-imidazo[4,5-b]pyridin-6-yl)-8-((1-methylpiperidin-3-yl)methoxy)imidazo[1,5-a]pyridin-6-yl)benzonitrile]: 100 to 500 nM.
In the case of `CN1CCC[C@@H](COc2cc(-c3ccc(C#N)cc3)c(-c3cnc4c(c3)nc(C3CC3)n4C)n3cncc23)C1` [Example 158, (R)-4-(5-(2-cyclopropyl-3-methyl-3H-imidazo[4,5-b]pyridin-6-yl)-8-((1-methylpiperidin-3-yl)methoxy)imidazo[1,5-a]pyridin-6-yl)benzonitrile] it was 100 to 500 nM.
